Results: US12723063B2, “GIPR-agonist compounds” (Eli Lilly and Company, priority 2019, dated 2026)
*1 amine or outer side, *2 acyl side, *3 side chain or, on linkers, in order; H or OH if unused. Where a SMILES comes first, the peptide text is derived from it. Side-chain parts run from the residue outwards. [ ]: non-standard residue; d: D form. The star is where a group is joined. C20 diacid = O=C(O)CCCCCCCCCCCCCCCCCCC(=O)*; γGlu = O=C(O)[C@H](CCC(=O)[*:2])N[*:1]; AEEA = NCCOCCOCC(=O)O; Aib = CC(C)(N)C(=O)O

What was measured:
[1] = target: T1, human glucagon receptor (GcgR) (Homo sapiens, UniProt P47871); test: cAMP functional assay (HTRF) in HEK293 cells in presence of 0.1% casein; assay type: cell-based; conditions: HEK293 cells expressing human GcgR, geometric mean, read-out: hGcgR cAMP Rel EC50 nM (SEM, n)
T1 construct: expressed in transfected cells; host or cells: HEK293
T1 sequence (P47871 26-477): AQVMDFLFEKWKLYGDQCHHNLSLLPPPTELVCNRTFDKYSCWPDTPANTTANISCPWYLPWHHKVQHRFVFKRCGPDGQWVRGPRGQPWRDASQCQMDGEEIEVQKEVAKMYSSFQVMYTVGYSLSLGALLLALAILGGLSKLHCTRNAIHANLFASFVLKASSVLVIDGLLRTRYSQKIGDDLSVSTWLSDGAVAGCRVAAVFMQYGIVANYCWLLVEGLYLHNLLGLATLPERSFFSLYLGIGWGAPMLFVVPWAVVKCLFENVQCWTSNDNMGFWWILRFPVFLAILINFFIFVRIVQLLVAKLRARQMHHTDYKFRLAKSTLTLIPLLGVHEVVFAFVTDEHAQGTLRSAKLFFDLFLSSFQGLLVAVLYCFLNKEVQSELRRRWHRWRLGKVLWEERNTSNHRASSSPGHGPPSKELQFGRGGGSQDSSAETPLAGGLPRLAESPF

[2] = target: T2, human glucose-dependent insulinotropic peptide receptor (GIPR) (Homo sapiens, UniProt P48546); test: as above; assay type: cell-based; conditions: HEK293 cells expressing human GIPR, geometric mean, read-out: hGIPR cAMP Rel EC50 nM (SEM, n)
T2 construct: expressed in transfected cells; host or cells: HEK293
T2 sequence (P48546 22-466): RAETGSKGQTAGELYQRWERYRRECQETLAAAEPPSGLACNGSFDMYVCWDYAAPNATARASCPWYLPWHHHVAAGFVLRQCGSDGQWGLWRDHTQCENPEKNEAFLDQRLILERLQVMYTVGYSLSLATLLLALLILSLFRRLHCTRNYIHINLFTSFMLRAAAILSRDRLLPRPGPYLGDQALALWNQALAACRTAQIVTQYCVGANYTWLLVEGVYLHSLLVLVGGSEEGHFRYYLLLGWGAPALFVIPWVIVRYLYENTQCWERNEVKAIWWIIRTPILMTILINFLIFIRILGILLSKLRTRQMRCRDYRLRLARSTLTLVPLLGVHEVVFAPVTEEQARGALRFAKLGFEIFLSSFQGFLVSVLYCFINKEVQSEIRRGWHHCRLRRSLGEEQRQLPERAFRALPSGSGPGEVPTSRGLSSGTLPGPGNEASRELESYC

Compound `CC[C@H](C)[C@H](NC(=O)[C@H](Cc1ccccc1)NC(=O)[C@@H](NC(=O)CNC(=O)[C@H](CCC(=O)O)NC(=O)C(C)(C)NC(=O)[C@@H](N)Cc1ccc(O)cc1)[C@@H](C)O)C(=O)N[C@@H](CO)C(=O)N[C@@H](CC(=O)O)C(=O)N[C@@H](Cc1ccc(O)cc1)C(=O)N[C@@H](CO)C(=O)N[C@H](C(=O)N[C@@](C)(CC(C)C)C(=O)N[C@@H](CC(C)C)C(=O)N[C@@H](CC(=O)O)C(=O)N[C@@H](CCCN)C(=O)N[C@@H](CCCCNC(=O)COCCOCCNC(=O)COCCOCCNC(=O)CC[C@H](NC(=O)CCCCCCCCCCCCCCCCCCC(=O)O)C(=O)O)C(=O)N[C@@H](Cc1c[nH]cn1)C(=O)N[C@@H](CCC(N)=O)C(=O)NC(C)(C)C(=O)N[C@@H](CC(=O)O)C(=O)N[C@@H](Cc1ccccc1)C(=O)N[C@H](C(=O)N[C@@H](CCC(=O)O)C(=O)N[C@@H](Cc1ccncc1)C(=O)N[C@@H](CC(C)C)C(=O)N[C@@H](CC(C)C)C(=O)N[C@@H](CCC(=O)O)C(=O)N[C@@H](C)C(=O)NCC(=O)N1CCC[C@H]1C(=O)N[C@@H](CO)C(=O)N[C@@H](CO)C(=O)NCC(=O)N[C@@H](C)C(=O)N1CCC[C@H]1C(=O)N1CCC[C@H]1C(=O)N1CCC[C@H]1C(=O)N[C@@H](CO)C(N)=O)C(C)C)[C@@H](C)CC` [Example 4] has an EC50 [1] of 1690 nM and an EC50 [2] of 0.0182 nM.

In the case of `CC[C@H](C)[C@H](NC(=O)[C@H](CCCCN)NC(=O)[C@H](CC(=O)O)NC(=O)[C@H](CC(C)C)NC(=O)[C@](C)(CC(C)C)NC(=O)[C@@H](NC(=O)[C@H](CO)NC(=O)[C@H](Cc1ccc(O)cc1)NC(=O)[C@H](CC(=O)O)NC(=O)[C@H](CO)NC(=O)[C@@H](NC(=O)[C@H](Cc1ccccc1)NC(=O)[C@@H](NC(=O)CNC(=O)[C@H](CCC(=O)O)NC(=O)C(C)(C)NC(=O)[C@@H](N)Cc1ccc(O)cc1)[C@@H](C)O)[C@@H](C)CC)[C@@H](C)CC)C(=O)N[C@@H](Cc1c[nH]cn1)C(=O)N[C@@H](CCC(N)=O)C(=O)NC(C)(C)C(=O)N[C@@H](CC(=O)O)C(=O)N[C@@H](Cc1ccccc1)C(=O)N[C@H](C(=O)N[C@@H](CCC(=O)O)C(=O)N[C@@H](Cc1ccc(O)cc1)C(=O)N[C@@H](CCCCNC(=O)COCCOCCNC(=O)COCCOCCNC(=O)CC[C@H](NC(=O)CCCCCCCCCCCCCCCCCCC(=O)O)C(=O)O)C(=O)N[C@@H](CC(C)C)C(=O)N[C@@H](CCC(=O)O)C(=O)NCC(=O)NCC(=O)N1CCC[C@H]1C(=O)N[C@@H](CO)C(=O)N[C@@H](CO)C(=O)NCC(=O)N[C@@H](C)C(=O)N1CCC[C@H]1C(=O)N1CCC[C@H]1C(=O)N1CCC[C@H]1C(=O)N[C@@H](CO)C(N)=O)C(C)C` [Example 5], the EC50 [1] was over 5000 nM and the EC50 [2] was 0.0148 nM.

For `CC[C@H](C)[C@H](NC(=O)[C@H](CCCN)NC(=O)[C@H](CC(=O)O)NC(=O)[C@H](CC(C)C)NC(=O)[C@](C)(CC(C)C)NC(=O)[C@@H](NC(=O)[C@H](CO)NC(=O)[C@H](Cc1ccc(O)cc1)NC(=O)[C@H](CC(=O)O)NC(=O)[C@H](CO)NC(=O)[C@@H](NC(=O)[C@H](Cc1ccccc1)NC(=O)[C@@H](NC(=O)CNC(=O)[C@H](CCC(=O)O)NC(=O)C(C)(C)NC(=O)[C@@H](N)Cc1ccc(O)cc1)[C@@H](C)O)[C@@H](C)CC)[C@@H](C)CC)C(=O)N[C@@H](Cc1c[nH]cn1)C(=O)N[C@@H](CCC(N)=O)C(=O)NC(C)(C)C(=O)N[C@@H](CC(=O)O)C(=O)N[C@@H](Cc1ccccc1)C(=O)N[C@H](C(=O)N[C@@H](CCC(=O)O)C(=O)N[C@@H](Cc1ccc(O)cc1)C(=O)N[C@@H](CCCCNC(=O)COCCOCCNC(=O)COCCOCCNC(=O)CC[C@H](NC(=O)CCCCCCCCCCCCCCCCCCC(=O)O)C(=O)O)C(=O)N[C@@H](CC(C)C)C(=O)N[C@@H](CCC(=O)O)C(=O)NCC(=O)NCC(=O)N1CCC[C@H]1C(=O)N[C@@H](CO)C(=O)N[C@@H](CO)C(=O)NCC(=O)N[C@@H](C)C(=O)N1CCC[C@H]1C(=O)N1CCC[C@H]1C(=O)N1CCC[C@H]1C(=O)N[C@@H](CO)C(N)=O)C(C)C` [Example 6], the EC50 [1] was over 5000 nM and the EC50 [2] was 0.0176 nM.

Compound `CC[C@H](C)[C@H](NC(=O)[C@H](CCCN)NC(=O)[C@H](CC(=O)O)NC(=O)[C@H](CC(C)C)NC(=O)[C@](C)(CC(C)C)NC(=O)[C@@H](NC(=O)[C@H](CO)NC(=O)[C@H](Cc1ccc(O)cc1)NC(=O)[C@H](CC(=O)O)NC(=O)[C@H](CO)NC(=O)[C@@H](NC(=O)[C@H](Cc1ccccc1)NC(=O)[C@@H](NC(=O)CNC(=O)[C@H](CCC(=O)O)NC(=O)C(C)(C)NC(=O)[C@@H](N)Cc1ccc(O)cc1)[C@@H](C)O)[C@@H](C)CC)[C@@H](C)CC)C(=O)N[C@@H](Cc1c[nH]cn1)C(=O)N[C@@H](CCC(N)=O)C(=O)NC(C)(C)C(=O)N[C@@H](CCC(=O)O)C(=O)N[C@@H](Cc1ccccc1)C(=O)N[C@H](C(=O)N[C@H](CCC(=O)O)C(=O)N[C@@H](Cc1ccc(O)cc1)C(=O)N[C@@H](CCCCNC(=O)COCCOCCNC(=O)COCCOCCNC(=O)CC[C@H](NC(=O)CCCCCCCCCCCCCCCCC(=O)O)C(=O)O)C(=O)N[C@@H](CC(C)C)C(=O)N[C@@H](CCC(=O)O)C(=O)NCC(=O)NCC(=O)N1CCC[C@H]1C(=O)N[C@@H](CO)C(=O)N[C@@H](CO)C(=O)NCC(=O)N[C@@H](C)C(=O)N1CCC[C@H]1C(=O)N1CCC[C@H]1C(=O)N1CCC[C@H]1C(=O)N[C@@H](CO)C(N)=O)C(C)C` [Example 7] has an EC50 [1] of over 5000 nM and an EC50 [2] of 0.0219 nM.

With `CC[C@H](C)[C@H](NC(=O)[C@H](CO)NC(=O)[C@H](Cc1ccc(O)cc1)NC(=O)[C@H](CC(=O)O)NC(=O)[C@H](CO)NC(=O)[C@@H](NC(=O)[C@H](Cc1ccccc1)NC(=O)[C@@H](NC(=O)CNC(=O)[C@H](CCC(=O)O)NC(=O)C(C)(C)NC(=O)[C@@H](N)Cc1ccc(O)cc1)[C@@H](C)O)[C@@H](C)CC)C(=O)N[C@@H](CC(C)C)C(=O)N[C@@H](CC(C)C)C(=O)N[C@@H](CC(=O)O)C(=O)N[C@@H](CCCCN)C(=O)N[C@@H](CCCCNC(=O)COCCOCCNC(=O)COCCOCCNC(=O)CC[C@H](NC(=O)CCCCCCCCCCCCCCCCCCC(=O)O)C(=O)O)C(=O)N[C@@H](C)C(=O)N[C@@H](CCC(N)=O)C(=O)NC(C)(C)C(=O)N[C@@H](CC(=O)O)C(=O)N[C@@H](Cc1ccccc1)C(=O)N[C@H](C(=O)N[C@@H](CC(N)=O)C(=O)N[C@@H](Cc1c[nH]c2ccccc12)C(=O)N[C@@H](CC(C)C)C(=O)N[C@@H](CC(C)C)C(=O)N[C@@H](C)C(=O)N[C@@H](CCC(N)=O)C(=O)NCC(=O)N1CCC[C@H]1C(=O)N[C@@H](CO)C(=O)N[C@@H](CO)C(=O)NCC(=O)N[C@@H](C)C(=O)N1CCC[C@H]1C(=O)N1CCC[C@H]1C(=O)N1CCC[C@H]1C(=O)N[C@@H](CO)C(N)=O)C(C)C` [Example 8] (H-Y[Aib]EGTFISDYSILLDKK([AEEA-AEEA-γGlu-C20 diacid])AQ[Aib]DFVNWLLAQGPSSGAPPPS-NH2) the EC50 [1] was 295 nM and the EC50 [2] was 0.0268 nM.

`CC[C@H](C)[C@H](NC(=O)[C@H](CO)NC(=O)[C@H](Cc1ccc(O)cc1)NC(=O)[C@H](CC(=O)O)NC(=O)[C@H](CO)NC(=O)[C@@H](NC(=O)[C@H](Cc1ccccc1)NC(=O)[C@@H](NC(=O)CNC(=O)[C@H](CCC(=O)O)NC(=O)[C@@H](C)NC(=O)[C@@H](N)Cc1ccc(O)cc1)[C@@H](C)O)[C@@H](C)CC)C(=O)N[C@@H](CC(C)C)C(=O)N[C@@H](CC(C)C)C(=O)N[C@@H](CC(=O)O)C(=O)N[C@@H](CCCCN)C(=O)N[C@@H](CCCCNC(=O)COCCOCCNC(=O)COCCOCCNC(=O)CC[C@H](NC(=O)CCCCCCCCCCCCCCCCCCC(=O)O)C(=O)O)C(=O)N[C@@H](Cc1c[nH]cn1)C(=O)N[C@@H](CCC(N)=O)C(=O)NC(C)(C)C(=O)N[C@@H](CC(=O)O)C(=O)N[C@@H](Cc1ccccc1)C(=O)N[C@H](C(=O)N[C@@H](CC(N)=O)C(=O)N[C@@H](Cc1c[nH]c2ccccc12)C(=O)N[C@@H](CC(C)C)C(=O)N[C@@H](CC(C)C)C(=O)N[C@@H](C)C(=O)N[C@@H](CCC(N)=O)C(=O)NCC(=O)N1CCC[C@H]1C(=O)N[C@@H](CO)C(=O)N[C@@H](CO)C(=O)NCC(=O)N[C@@H](C)C(=O)N1CCC[C@H]1C(=O)N1CCC[C@H]1C(=O)N1CCC[C@H]1C(=O)N[C@@H](CO)C(N)=O)C(C)C` [Example 9] (H-Y[dA]EGTFISDYSILLDKK([AEEA-AEEA-γGlu-C20 diacid])HQ[Aib]DFVNWLLAQGPSSGAPPPS-NH2) gave an EC50 [1] of over 5000 nM and an EC50 [2] of 0.165 nM.

`CC[C@H](C)[C@H](NC(=O)[C@H](CO)NC(=O)[C@H](Cc1ccc(O)cc1)NC(=O)[C@H](CC(=O)O)NC(=O)[C@H](CO)NC(=O)[C@@H](NC(=O)[C@H](Cc1ccccc1)NC(=O)[C@@H](NC(=O)CNC(=O)[C@H](CCC(=O)O)NC(=O)[C@@H](C)NC(=O)[C@@H](N)Cc1ccc(O)cc1)[C@@H](C)O)[C@@H](C)CC)C(=O)N[C@@H](CC(C)C)C(=O)N[C@@H](CC(C)C)C(=O)N[C@@H](CC(=O)O)C(=O)N[C@@H](CCCCN)C(=O)N[C@@H](CCCCNC(=O)COCCOCCNC(=O)COCCOCCNC(=O)CC[C@H](NC(=O)CCCCCCCCCCCCCCCCCCC(=O)O)C(=O)O)C(=O)N[C@@H](Cc1c[nH]cn1)C(=O)N[C@@H](CCC(N)=O)C(=O)N[C@@H](CCC(N)=O)C(=O)N[C@@H](CC(=O)O)C(=O)N[C@@H](Cc1ccccc1)C(=O)N[C@H](C(=O)N[C@@H](CC(N)=O)C(=O)N[C@@H](Cc1c[nH]c2ccccc12)C(=O)N[C@@H](CC(C)C)C(=O)N[C@@H](CC(C)C)C(=O)N[C@@H](C)C(=O)NCC(=O)NCC(=O)N1CCC[C@H]1C(=O)N[C@@H](CO)C(=O)N[C@@H](CO)C(=O)NCC(=O)N[C@@H](C)C(=O)N1CCC[C@H]1C(=O)N1CCC[C@H]1C(=O)N1CCC[C@H]1C(=O)N[C@@H](CO)C(N)=O)C(C)C` [Example 10] (H-Y[dA]EGTFISDYSILLDKK([AEEA-AEEA-γGlu-C20 diacid])HQQDFVNWLLAGGPSSGAPPPS-NH2) gave an EC50 [1] of over 5000 nM and an EC50 [2] of 0.611 nM.
